From patent US6589914B2, “Dihalopropene compounds, insecticidal/acaridcidal agents containing same, and intermediates for their production” (Sumitomo Chemical Company, Limited, priority 1994, dated 2003)
Read-outs that look alike come from different tables or passages of the source.

How the values were obtained:
Tetranychus urticae Koch = test: Test against Tetranychus urticae Koch (spray and soil drench on potted bean); assay type: in vivo; settings: active ingredient at 500 ppm, 15 ml sprayed per pot plus 2 ml soil drench, after 8 days
Procedure: Ten female adults of Tetranychus urticae Koch per one leaf were allowed to parasitize to a potting bean at the primary leaf stage harvested for 7 days after seeding, and these pots were placed in a thermostated room at 25° C. After 6 days, a chemical solution containing an active ingredient at 500 ppm, which had been prepared by diluting with water an emulsifiable concentrate of the test compound obtained according to Formulation Example 1, was sprayed at a volume of 15 ml over each pot on a turntable. At the same time, 2 ml of the same solution was drenched in the soil. After 8 days, the degree of damage on the respective plants caused by Tetranychus urticae Koch was examined. The effects were determined according to the following criteria:
−: Damage is scarcely observed.
+: Damage is slightly observed.
++: Damage is observed at the same level as in the non-treated field.

Spodoptera litura = test: Insecticidal test against Spodoptera litura (treated artificial diet); assay type: in vivo; settings: 144 h, active ingredient at 500 ppm, 2 ml in 13 g artificial diet, fourth-instar larvae, after 6 days
Procedure: A 200-fold dilution containing an active ingredient at 500 ppm, which had been prepared by diluting with water an emulsifiable concentrate of the test compound obtained according to Formulation Example 1, was absorbed at a volume of 2 ml in 13 g of an artificial diet for Spodoptera litura, which had been prepared in a polyethylene cup having a diameter of 11 cm. Ten fourth-instar larvae of Spodoptera litura were set free in the cup. After 6 days, the survival of larvae was examined to determine the mortality. The test was conducted in duplicate.

Plutella xylostella = test: Insecticidal test against Plutella xylostella (spray on potted cabbage); assay type: in vivo; settings: 96 h
Procedure: A chemical solution containing an active ingredient at 50 ppm, which had been prepared by diluting an emulsifiable concentrate of the test compound obtained according to Formulation Example 1 with water containing spreading agent RINOU (Nihon Nouyaku K.K.) to a degree such that the spreading agent had been 1000-fold diluted, was sprayed at a volume 25 ml over each pot of a potting cabbage at the five leaf stage. The treated plants were air dried, on which ten third-instar larvae of Plutella xylostella were set free. After 4 days, the mortality was determined.

Heliothis virescens = test: Insecticidal test against Heliothis virescens (treated artificial diet); assay type: in vivo; settings: 144 h
Procedure: A dilution containing an active ingredient at 100 ppm, which had been prepared by diluting with water an emulsifiable concentrate of the test compound obtained according to Formulation Example 1, was incorporated at a volume of 0.2 ml in an artificial diet. A second-instar larva of H. virescens was given the diet and bred in a plastic vessel. Ten insects were used by each treatment. After 6 days, the mortality was determined.

[1] = active ingredient at 50 ppm, 25 ml sprayed per pot of cabbage, third-instar larvae, after 4 days, read-out: mortality
[2] = active ingredient at 100 ppm, 0.2 ml in artificial diet, second-instar larva, after 6 days, read-out: mortality

| Compound | melting point | degree of damage on the plants caused by Tetranychus urticae Koch (Tetranychus urticae Koch) | further results |
| --- | --- | --- | --- |
| O=C(OCCCOc1c(Cl)cc(OCC=C(Cl)Cl)cc1Cl)c1cnc2ccccc2c1 [Compound 28, 3-(2,6-Dichloro-4-(3,3-dichloro-2-propenyloxy)phenoxy)propyl 3-quinolinate] | 92.3 °C |  |  |
| ClC(Cl)=CCOc1cc(Cl)c(OCCc2cccs2)c(Cl)c1 [Compound 10, 3,5-Dichloro-4-(2-(2-thienyl)ethoxy)-1-(3,3-dichloro-2-propenyloxy)benzene] |  | “−” or “+” |  |
| ClC(Cl)=CCOc1cc(Cl)c(OCc2ccncc2)c(Cl)c1 [Compound 9, 3,5-Dichloro-4-(4-pyridylmethyloxy)-1-(3,3-dichloro-2-propenyloxy)benzene] | 74 °C |  |  |
| ClC(Cl)=CCOc1cc(Cl)c(OCc2ccc(Cl)nc2Cl)c(Cl)c1 [Compound 2, 3,5-Dichloro-4-(2,6-dichloro-3-pyridylmethyloxy)-1-(3,3-dichloro-2-propenyloxy)benzene] |  |  | mortality at 500 ppm (Spodoptera litura): ≥ 80% |
| FC(F)(F)c1cnc(OCCCOc2c(Cl)cc(OCC=C(Cl)Cl)cc2Cl)c(Cl)c1 [Compound 37, 3,5-Dichloro-4-(3-(3-chloro-5-trifluoromethyl-2-pyridyloxy)propyloxy)-1-(3,3-dichloro-2-propenyloxy)benzene] |  |  | mortality at 50 ppm (Plutella xylostella; [1]): ≥ 80% |
| ClC(Cl)=CCOc1cc(Cl)c(OCc2ccco2)c(Cl)c1 [Compound 7, 3,5-Dichloro-4-(2-furanylmethyloxy)-1-(3,3-dichloro-2-propenyloxy)benzene] | 46 °C | “−” or “+” |  |
| FC(F)(F)c1ccc(OCCCOc2c(Cl)cc(OCC=C(Cl)Cl)cc2Cl)nc1 [Compound 36, 3,5-Dichloro-4-(3-(5-trifluoromethyl-2-pyridyloxy)propyloxy)-1-(3,3-dichloro-2-propenyloxy)benzene] |  |  | mortality at 100 ppm (Heliothis virescens): ≥ 80%; mortality at 50 ppm (Plutella xylostella): ≥ 80% |
| CC(C)(COc1c(Cl)cc(OCC=C(Cl)Cl)cc1Cl)Oc1cccc(Cl)n1 [Compound 33, 3,5-Dichloro-4-(2-methyl-2-(2-(6-chloro)pyridyloxy)propyloxy)-1-(3,3-dichloro-2-propenyloxy)benzene] |  | “−” or “+” |  |
| ClC(Cl)=CCOc1cc(Cl)c(OCc2cccnc2)c(Cl)c1 [Compound 8, 3,5-Dichloro-4-(3-pyridylmethyloxy)-1-(3,3-dichloro-2-propenyloxy)benzene] | 105.9 °C |  |  |
| FC(F)(F)c1ccc(OCCCCCOc2c(Cl)cc(OCC=C(Cl)Cl)cc2Cl)nc1 [Compound 43, 3,5-Dichloro-4-(5-(5-trifluoromethyl-2-pyridyloxy)pentyloxy)-1-(3,3-dichloro-2-propenyloxy)benzene] |  |  | mortality at 100 ppm (Heliothis virescens; [2]): ≥ 80% |
| ClC(Cl)=CCOc1cc(Cl)c(OCCc2nc3ccccc3o2)c(Cl)c1 [Compound 32, 3,5-Dichloro-4-(2-(2-benzoxazolyl)ethoxy)-1-(3,3-dichloro-2-propenyloxy)benzene] | 61.2 °C | “−” or “+” |  |
| ClC(Cl)=CCOc1cc(Cl)c(OCCCc2cccnc2)c(Cl)c1 [Compound 20, 3,5-Dichloro-4-(3-(3-pyridyl)propyloxy)-1-(3,3-dichloro-2-propenyloxy)benzene] | 48.3 °C |  |  |
| ClC(Cl)=CCOc1cc(Cl)c(OCc2cccs2)c(Cl)c1 [Compound 6, 3,5-Dichloro-4-(2-thienylmethyloxy)-1-(3,3-dichloro-2-propenyloxy)benzene] | 44.6 °C |  |  |
| ClC(Cl)=CCOc1cc(Cl)c(OCCCc2ccncc2)c(Cl)c1 [Compound 15, 3,5-Dichloro-4-(3-(4-pyridyl)propyloxy)-1-(3,3-dichloro-2-propenyloxy)benzene] |  | “−” or “+” |  |
| ClC(Cl)=CCOc1cc(Cl)c(OCCSc2ccncc2)c(Cl)c1 [Compound 19, 3,5-Dichloro-4-(2-(4-pyridylthio)ethoxy)-1-(3,3-dichloro-2-propenyloxy)benzene] | 74.7 °C |  |  |
| ClC(Cl)=CCOc1cc(Cl)c(OCCc2ccsc2)c(Cl)c1 [Compound 14, 3,5-Dichloro-4-(2-(3-thienyl)ethoxy)-1-(3,3-dichloro-2-propenyloxy)benzene] |  |  | mortality at 500 ppm (Spodoptera litura): ≥ 80% |
| ClC(Cl)=CCOc1cc(Cl)c(OCCCSc2nc3ccccc3[nH]2)c(Cl)c1 [Compound 39, 3,5-Dichloro-4-(3-(2-benzimidazolylthio)propyloxy)-1-(3,3-dichloro-2-propenyloxy)benzene] | 120.7 °C |  |  |
| ClC(Cl)=CCOc1cc(Cl)c(OCc2ccc(Cl)nc2)c(Cl)c1 [Compound 1, 3,5-Dichloro-4-(6-chloro-3-pyridylmethyloxy)-1-(3,3-dichloro-2-propenyloxy)benzene] |  | “−” or “+” | mortality at 500 ppm (Spodoptera litura): ≥ 80% |
| ClC(Cl)=CCOc1cc(Cl)c(NCCCOc2ccccn2)c(Cl)c1 [Compound 71, 3,5-Dichloro-4-(3-(2-pyridyloxy)propylamino)-1-(3,3-dichloro-2-propenyloxy)benzene] | 76.2 °C |  |  |
| ClC(Cl)=CCOc1cc(Cl)c(OCCCSc2ccccn2)c(Cl)c1 [Compound 30, 3,5-Dichloro-4-(3-(2-pyridylthio)propyloxy)-1-(3,3-dichloro-2-propenyloxy)benzene] |  | “−” or “+” |  |
| ClC(Cl)=CCOc1cc(Cl)c(OCc2ccccn2)c(Cl)c1 [Compound 5, 3,5-Dichloro-4-(2-pyridylmethyloxy)-1-(3,3-dichloro-2-propenyloxy)benzene] | 48.2 °C |  |  |
| FC(F)(F)c1ccc(OCCCCOc2c(Cl)cc(OCC=C(Cl)Cl)cc2Cl)nc1 [Compound 42, 3,5-Dichloro-4-(4-(5-trifluoromethyl-2-pyridyloxy)butyloxy)-1-(3,3-dichloro-2-propenyloxy)benzene] |  |  | mortality at 100 ppm (Heliothis virescens; [2]): ≥ 80%; mortality at 50 ppm (Plutella xylostella; [1]): ≥ 80% |
| CN1C=CSC1CCOc1c(Cl)cc(OCC=C(Cl)Cl)cc1Cl (stereo not shown) [Compound 11, 3,5-Dichloro-4-(2-(3-methylthiazol-2-yl)ethoxy)-1-(3,3-dichloro-2-propenyloxy)benzene] | 30.4 °C |  |  |
